Source: ChEMBL document CHEMBL1124302, “Nucleoside conjugates. 10. Synthesis and antitumor activity of 1-beta-D-arabinofuranosylcytosine 5'-diphosphate-1,2-dipalmitins” (J Med Chem, 1988)
Where “and” joins values, the source holds several entries; their conditions need not be identical. Equal entries are not always repeated.

How the values were obtained:
Type in all cases: functional
[1] = organism: Mus musculus; assay: Percentage increase in life span after 10 days
[2] = organism: Mus musculus; assay: Percentage increase in life span after 11-12 days
[3] = test system: Mus musculus; assay: No of survivors after 45 days ata dose of 19 and 38 mg/kg/day
[4] = test system: Mus musculus; assay: No of survivors after 45 days ata dose of 95 and 190 mg/kg/day
[5] = test system: Mus musculus; assay: Weight change on day 8 in L1210/ara-C (I) Lymphoid Leukemia in mice( ip implanted) at a dose of 95 and 190 mg/kg/day; settings: route intraperitoneal
[6] = test system: Mus musculus; assay: weight change on day 8 in L1210/ara-C (I) Lymphoid Leukemia in mice( ip implanted) at a dose of 19 and 38 mg/kg/day; settings: route intraperitoneal
[7] = organism: Mus musculus; assay: Percentage increase in life span after 9-12 days
[8] = organism: Mus musculus; assay: Percentage increase in life span after 12-13days
[9] = organism: Mus musculus; assay: Percentage increase in life span after 13-15 days
[10] = organism: Mus musculus; assay: Percentage increase in life span after 15-18 days
[11] = organism: Mus musculus; assay: Percentage increase in life span after 17-21 days
[12] = organism: Mus musculus; assay: Percentage increase in life span after 7-8 days
[13] = organism: Mus musculus; assay: Percentage increase in life span after 7 days
[14] = organism: Mus musculus; assay: Dose producing greatest increase in life span expressed as optimum dose (L1210/ara-C I) (qd 1)
[15] = organism: Mus musculus; assay: Dose producing greatest increase in life span expressed as optimum dose (L1210/ara-C I) (qd 1,5,9)
[16] = organism: Mus musculus; assay: Dose producing greatest increase in life span expressed as optimum dose (L1210/ara-C I) (qd 1-15)
[17] = organism: Mus musculus; assay: Dose producing greatest increase in life span expressed as optimum dose (L1210/ara-C I) (qd 1-5)
[18] = test system: Mus musculus; assay: (§1) No of survivors after 45 days at a dose of 100 mg/kg/day
[19] = test system: Mus musculus; assay: as §1; remark: listed apart in the source
[20] = test system: Mus musculus; assay: (§2) No of survivors after 45 days at a dose of 200 mg/kg/day
[21] = test system: Mus musculus; assay: as §2; remark: listed apart in the source
[22] = test system: Mus musculus; assay: No of survivors after 45 days at a dose of 300 mg/kg/day
[23] = test system: Mus musculus; assay: (§3) No of survivors after 45 days at a dose of 60 mg/kg/day
[24] = test system: Mus musculus; assay: as §3; remark: listed apart in the source
[25] = organism: Mus musculus; assay: Dose producing greatest increase in life span expressed as optimum dose (L1210/ara-C I) (qd 1-9)
[26] = organism: Mus musculus; assay: Dose producing greatest increase in life span expressed as optimum dose (L1210/ara-C II) (qd 1-5)
[27] = test system: Mus musculus; assay: Weight change on day 8 in L1210/ara-C (I) Lymphoid Leukemia in mice( ip implanted) at a dose of 100 mg/kg/day (qd=1,5,9); settings: route intraperitoneal
[28] = test system: Mus musculus; assay: Weight change on day 8 in L1210/ara-C (I) Lymphoid Leukemia in mice( ip implanted) at a dose of 200 mg/kg/day (qd=1); settings: route intraperitoneal
[29] = test system: Mus musculus; assay: Weight change on day 8 in L1210/ara-C (I) Lymphoid Leukemia in mice( ip implanted) at a dose of 60 mg/kg/day (qd=1-15); settings: route intraperitoneal
[30] = test system: Mus musculus; assay: Weight change on day 8 in L1210/ara-C (I) Lymphoid Leukemia in mice( ip implanted) at a dose of 60 mg/kg/day (qd=1-5); settings: route intraperitoneal
[31] = test system: Mus musculus; assay: Weight change on day 8 in L1210/ara-C (I) Lymphoid Leukemia in mice( ip implanted) at a dose of 60 mg/kg/day (qd=1-9); settings: route intraperitoneal
[32] = test system: Mus musculus; assay: No of survivors after 45 days ata dose of 60 mg/kg/day
[33] = test system: Mus musculus; assay: No of survivors after 45 days at a dose of 400 mg/kg/day
[34] = test system: Mus musculus; assay: weight change on day 8 in L1210/ara-C (I) Lymphoid Leukemia in mice( ip implanted) at a dose of 60 mg/kg/day (qd=1-5); settings: route intraperitoneal
[35] = test system: Mus musculus; assay: weight change on day 8 in L1210/ara-C (I) Lymphoid Leukemia in mice( ip implanted) at a dose of 100 mg/kg/day (qd=1,5,9); settings: route intraperitoneal
[36] = test system: Mus musculus; assay: No of survivors after 45 days ata dose of 100 mg/kg/day
[37] = test system: Mus musculus; assay: Weight change on day 8 in L1210/ara-C (I) Lymphoid Leukemia in mice( ip implanted) at a dose of 400 mg/kg/day (qd=1); settings: route intraperitoneal
[38] = organism: Mus musculus; assay: Percentage increase in life span after 8->45 days
[39] = organism: Mus musculus; assay: Percentage increase in life span after 8-9 days
[40] = organism: Mus musculus; assay: Percentage increase in life span after 29->45 days
[41] = organism: Mus musculus; assay: Percentage increase in life span after 35->45 days
[42] = test system: Mus musculus; assay: No of survivors after 45 dose ata dose of 300 mg/kg/day
[43] = test system: Mus musculus; assay: No of survivors after 45 dose ata dose of 60 mg/kg/day
[44] = test system: Mus musculus; assay: No of survivors after 45 days ata dose of 300 60 mg/kg/day
[45] = test system: Mus musculus; assay: No of survivors after 45 days ata dose of 300 mg/kg/day
[46] = test system: Mus musculus; assay: No of survivors after 45 dose ata dose of 133 mg/kg/day
[47] = organism: Mus musculus; assay: Dose producing greatest increase in life span expressed as optimum dose (L1210/ara-C II) (qd 1)
[48] = test system: Mus musculus; assay: Weight change on day 8 in L1210/ara-C (I) Lymphoid Leukemia in mice( ip implanted) at a dose of 133 mg/kg/day (qd=1,5,9); settings: route intraperitoneal
[49] = test system: Mus musculus; assay: Weight change on day 8 in L1210/ara-C (I) Lymphoid Leukemia in mice( ip implanted) at a dose of 300 mg/kg/day (qd=1); settings: route intraperitoneal
[50] = organism: Mus musculus; assay: Percentage increase in life span after 9-11 days
[51] = organism: Mus musculus; assay: Percentage increase in life span after 7-14 days
[52] = test system: Mus musculus; assay: Weight change on day 8 in L1210/ara-C (I) Lymphoid Leukemia in mice( ip implanted) at a dose of 19 and 38 mg/kg/day (qd=1-5); settings: route intraperitoneal
[53] = test system: Mus musculus; assay: Weight change on day 8 in L1210/ara-C (I) Lymphoid Leukemia in mice( ip implanted) at a dose of 95 and 190 mg/kg/day (qd=1); settings: route intraperitoneal
[54] = organism: Mus musculus; assay: Percentage increase in life span after 17-29 days
[55] = organism: Mus musculus; assay: Percentage increase in life span after 17-35 days
[56] = test system: Mus musculus; assay: No of survivors after 45 days ata dose of 400 mg/kg/day
[57] = test system: Mus musculus; assay: No of survivors after 45 days ata dose of 80 mg/kg/day
[58] = test system: Mus musculus; assay: Weight change on day 8 in L1210/ara-C (I) Lymphoid Leukemia in mice( ip implanted) at a dose of 80 mg/kg/day (qd=1-5); settings: route intraperitoneal

`CCCCCCCCCCCCCCCC(=O)OC[C@@H](COP(=O)(O)O)OC(=O)CCCCCCCCCCCCCCC.Nc1ccn([C@@H]2O[C@H](COP(=O)(O)O)[C@@H](O)[C@@H]2O)c(=O)n1` was tested, and the ILS [1] was 5%, the ILS [2] was 16% and the No. of survivors [3] was 0. The No. of survivors [4] was 0, the Weight change [5] was -0.82 g mouse-1 and the Weight change [6] was -1.58 g mouse-1.

With `Nc1ccn([C@@H]2O[C@H](CO)[C@@H](O)[C@@H]2O)c(=O)n1` [CYTARABINE] the ILS [7] was 17%, the ILS [8] was 50% and the ILS [9] was 65%. The ILS [10] was 82%, the ILS [11] was 147% and the ILS [12] was -22% and -11%. For the same compound, the ILS [13] was -22%, the Optimal dose [14] was 200 µM/kg and the Optimal dose [15] was 100 µM/kg. For the same compound, the Optimal dose [16] was 60 µM/kg, the Optimal dose [17] was 60 µM/kg and the No. of survivors [18] was 0. It also gave a No. of survivors [19] of 0, a No. of survivors [20] of 0 and a No. of survivors [21] of 0. The No. of survivors [22] was 0, the No. of survivors [23] was 0 and the No. of survivors [24] was 0. The Optimal dose [25] was 60 µM/kg, the Optimal dose [26] was 100 µM/kg and 200 µM/kg and 300 µM/kg and the Weight change [27] was 2.6 g mouse-1. The Weight change [28] was 3.6 g mouse-1, the Weight change [29] was -0.93 g mouse-1 and the Weight change [30] was -0.87 g mouse-1. It also gave a Weight change [31] of -1.8 g mouse-1.

With `CCCCCCCCCCCCCCCC(=O)OCC(COP(=O)(O)OP(=O)(O)OC[C@H]1O[C@@H](n2ccc(N)nc2=O)[C@@H](O)[C@@H]1O)OC(=O)CCCCCCCCCCCCCCC` (mixture of isomers) the ILS [7] was over 400%, the ILS [8] was 317% and the ILS [9] was 233%. For the same compound, the Optimal dose [15] was 100 mg·µM/kg, the No. of survivors [32] was 2 and the No. of survivors [33] was 4. For the same compound, the Weight change [34] was -2.92 g mouse-1, the Weight change [35] was -1.35 g mouse-1 and the No. of survivors [36] was 2. It also gave a Weight change [37] of -2.07 g mouse-1.

`CCCCCCCCCCCCCCCC(=O)OC[C@H](COP(=O)(O)OP(=O)(O)OC[C@H]1O[C@@H](n2ccc(N)nc2=O)[C@@H](O)[C@@H]1O)OC(=O)CCCCCCCCCCCCCCC` showed an ILS [38] of over 400%, an ILS [39] of -11% and an ILS [40] of over 400%. The ILS [41] was over 374%, the ILS [12] was -11% and the No. of survivors [42] was 4. The No. of survivors [43] was 5, the Optimal dose [15] was 133 mg·µM/kg and the No. of survivors [44] was 0. It also gave a No. of survivors [45] of 0, a No. of survivors [46] of 5 and an Optimal dose [47] of 300 mg·µM/kg. It also gave a Weight change [48] of -0.53 g mouse-1, a Weight change [49] of -0.04 g mouse-1 and a Weight change [30] of -2.72 g mouse-1.

Compound `CCCCCCCCCCCCCCCC(=O)OC[C@H](COP(=O)(O)O)OC(=O)CCCCCCCCCCCCCCC.Nc1ccn([C@@H]2O[C@H](COP(=O)(O)O)[C@@H](O)[C@@H]2O)c(=O)n1` has an ILS [50] of 5%, an ILS [51] of 16% and a No. of survivors [3] of 0. The No. of survivors [4] was 0, the Weight change [52] was -1.08 g mouse-1 and the Weight change [53] was -0.5 g mouse-1.

`CCCCCCCCCCCCCCCC(=O)OC[C@@H](COP(=O)(O)OP(=O)(O)OC[C@H]1O[C@@H](n2ccc(N)nc2=O)[C@@H](O)[C@@H]1O)OC(=O)CCCCCCCCCCCCCCC` showed an ILS [54] of 121%, an ILS [55] of 100% and a No. of survivors [56] of 0. For the same compound, the No. of survivors [57] was 0, the Weight change [58] was -0.48 g mouse-1 and the Weight change [37] was 0.18 g mouse-1.
